These are literature values, as cited in patent US20090062294A1, “HETEROARYL-SUBSTITUTED UREA MODULATORS OF FATTY ACID AMIDE HYDROLASE” (priority 2007, published 2009).

One data set has as its system spasticity. The conditions noted are these: model of multiple sclerosis; cited from earlier work.
In another data set the test system is neuropathic pain. To be noted: rats; cited from earlier work.
Data set [1] concerns acute thermal nociception. To be noted: rats; cited from earlier work.
The next data set concerns anxiety. The conditions noted are these: rats; cited from earlier work.
A further data set has as its system thermal nociception. To be noted: rats; cited from earlier work.
Another data set concerns pain. To be noted: rat; cited from earlier work.

Turning to `CCCCCCCCCCCCCCCCS(=O)(=O)F` [AM374], in the data set on spasticity, the “spasticity in CREAE mice” value was “significantly reduce spasticity”.
As to `Cc1nc(-c2ccccc2)c(-c2ccccc2)n1CCCCCCNC(=O)Oc1ccccc1F` [BMS-1], in the data set on neuropathic pain, the “analgesic effect in Chung spinal nerve ligation model” value is “analgesic effect”. Also, the “analgesic effect in Hargraves test” value in data set [1] is listed as “analgesic effect”.
Consider `NC(=O)c1cccc(-c2cccc(OC(=O)NC3CCCCC3)c2)c1` [URB-597], for which, in the data set on anxiety, the “efficacy in zero plus maze model of anxiety” value was “efficacy”. The “analgesic efficacy/activity in hot plate test” value in the data set with thermal nociception is recorded as “analgesic efficacy”. In addition, the “analgesic efficacy in formalin test” value in the data set with pain is reported as “analgesic efficacy”.
